One data set deals with Human PBMC. In words: IL-2 expression in SEB-stimulated PBMC cultures. The class given is cell-based. The following applies: five days, Luminex.
The test system of data set [1] is HT-29 colorectal adenocarcinoma cell line+HDFn+PBMC. As to the kind of experiment: BioMAP StroHT29 system. The class given is cell-based, human. The following applies: stromal IL-6, FIG. 14. From the text: (§1) To recapitulate the complex signaling networks that manifest in the multi-component TME, the BioMAP Oncology systems co-culture human primary immune cells with primary tissue cells in the presence of a specific cancer cell line. These co-cultures are stimulated with submitogenic levels of T cell receptor (TCR) ligands to prime, but not maximally activate T cells and model immune cells recruited to the intra-tumoural microenvironment.
There are two BioMAP Oncology panels that model the interactions between the immune-stromal (fibroblasts) and immune-vascular (endothelial cells) environments in the context of colon cancer (HT-29 CRC cell line), or in the context of non-small lung cancer (NCI-H1299 NSCLC cell line). The interactions between tumour cells, stimulated immune cells (peripheral blood mononuclear cells (PBMC)), and the host stromal network (human neonatal dermal fibroblasts (HDFn)) is captured in the Stro Oncology systems. […]
Adherent cell types are cultured in 96-well plates until confluent, followed by the addition of PBMC. […] Soluble factors from supernatants are quantified using either HTRF® detection, bead-based multiplex immunoassay or capture ELISA. Effects of test agents on cell viability (cytotoxicity) are measured by sulforhodamine B (SRB) for adherent cells (48-hrs), and by alamarBlue® reduction for cells in suspension (42-hrs) at the time points indicated. […]

A short description of data set [2]: Stability in human plasma. The data set is classed as in vitro ADME.
In a further data set the test system is HepG2. As to the kind of experiment: IC50 in representative HCC cell line HepG2. The data set is classed as cell-based. The following applies: Homo sapiens.
Data set [3] relates to vascular or stromal models of HT-29 and peripheral blood mononuclear cells (PBMCs). In words: BioMAP Oncology CRC panel, system not specified (tumour immune microenvironment model). The class given is cell-based, human. The settings on record: 4 concentrations, 48-hrs, vs vehicle control.
Text: as §1
There are two BioMAP Oncology panels that model the interactions between the immune-stromal (fibroblasts) and immune-vascular (endothelial cells) environments in the context of colon cancer (HT-29 CRC cell line), or in the context of non-small lung cancer (NCI-H1299 NSCLC cell line). The interactions between tumour cells, stimulated immune cells (peripheral blood mononuclear cells (PBMC)), and the host stromal network (human neonatal dermal fibroblasts (HDFn)) is captured in the Stro Oncology systems. In parallel, the Vasc systems capture the interactions between tumour cells, activated immune cells and the vascular tissue (human umbilical vein endothelial cells (HUVEC). The biomarkers selected for the Oncology panels inform on activities related to inflammation, immune-function, tissue remodeling and metastasis in the context of a host tumour-microenvironment. Collectively, the Oncology CRC panel and the Oncology NSCLC panel.
Human primary cells in BioMAP systems are used at early passage (passage 4 or earlier) to minimize adaptation to cell culture conditions and preserve physiological signaling responses. All primary cells are pooled from multiple donors (n=3-6), commercially purchased and handled according to the recommendations of the manufacturers. The HT-29 CRC cell line and the NCI-H1299 NSCLC cell line are purchased from American Type Culture Collection (ATCC). Abbreviations are used as follows: human umbilical vein endothelial cells (HUVEC), peripheral blood mononuclear cells (PBMC), human neonatal dermal fibroblasts (HDFn) and T cell receptor (TCR). Systems in both the Oncology CRC and NSCLC panels are stimulated by sub-mitogenic levels of super antigens (SAg) acting via the TCR to recapitulate the recruitment of immune cells to the tumour environment in situ. These stimulation conditions are optimized to activate or prime T cells, but not drive T cell proliferation.
Cell types used in each of the CRC systems are as follows: StroHT29 system [HT-29 colorectal adenocarcinoma cell line+HDFn+PBMC] and VascHT29 system [HT-29 colorectal adenocarcinoma cell line+HUVEC+PBMC].
Adherent cell types are cultured in 96-well plates until confluent, followed by the addition of PBMC. Test agents prepared in either DMSO (small molecules; final concentration ≤0.1%) or PBS (biologics) are added at the specified concentrations 1-hr before stimulation, and remain in culture for 48-hrs. Each plate contains drug controls (e.g., legacy control test agent colchicine), negative controls (e.g., non-stimulated condition) and vehicle controls (e.g., 0.1% DMSO). Direct ELISA is used to measure biomarker levels of cell-associated and cell membrane targets. Soluble factors from supernatants are quantified using either HTRF® detection, bead-based multiplex immunoassay or capture ELISA. Effects of test agents on cell viability (cytotoxicity) are measured by sulforhodamine B (SRB) for adherent cells (48-hrs), and by alamarBlue® reduction for cells in suspension (42-hrs) at the time points indicated. All test agents are tested in standardized formats at 4 concentrations, in triplicate. Colchicine stimulated wells, vehicle control treated wells, and wells without stimulation are included as controls on each plate (n=3-8). Data acceptance criteria are based on plate performance (% CV of controls), and the performance of positive controls across assays with a comparison to historical controls. […]

In another data set the test system is SK-OV-3 tumour cells. As to the kind of experiment: PBMC-mediated tumour cell killing. The data set is classed as cell-based, human. The following applies: anti-CD3 stimulated PBMC co-culture, 68 hrs, 5000 nM MIV-818. The method, then: Whole blood from three healthy donors was used. PBMC were isolated over a density gradient and counted before adding to NucLight Red labelled tumour targets at a defined E:T ratio in the presence of anti-CD3 stimulation. Tumour cell—PBMC co-cultures were incubated with test compounds at eight concentrations. Appropriate controls were included: PBMC alone, tumour cells alone, tumour cells/PBMC in the presence of a reference compound at a single concentration. All test conditions were also plated onto tumour cells in the absence of stimulated PBMC in order to detect direct compound-associated tumour cytotoxicity. Tumour killing was evaluated by counting viable NucLight positive tumour cells over time. In addition, a Caspase 3/7 dye was used to identify apoptotic tumour cells. Cultures were analysed using an IncuCyte ZOOM machine which allows real-time quantitative live cell fluorescent imaging. Co-cultures were imaged over 68 hrs. Each culture condition was established in triplicate. Cell culture supernatants were stored for optional cytokine analysis.
PBMC were isolated from 3 healthy donors and added to co-cultures with anti-CD3 stimulation and NucLight Red labelled SK-OV-3 tumour cells. […] SK-OV-3 apoptotic cell death was monitored in the co-culture system by imaging for 68 hours using the IncuCyte Zoom software.

Data set [4] is described as follows: Stability in rodent blood / plasma. The data set is classed as in vitro ADME.
Another data set concerns HT-29. In words: Sensitivity of HT-29 cells to MIV-818 alone (IC50). The class given is cell-based. The settings on record: Homo sapiens; HT-29, MIV-818 alone.
For data set [5] the following is noted: pulmonary metastatic liver cancer, Wu et al 2017; cited from earlier work.

“Also recorded” adds a separate entry of the source.

As usually defined, the IC50 is the concentration at which inhibition is half-maximal. High values mean lower potency, low ones higher potency. Take `CCC[C@H](C)OC(=O)[C@H](C)NP(=O)(OC[C@H]1OC[C@@H](n2ccc(N)nc2=O)O1)Oc1ccc(Br)cc1` (stereo in doubt) [MIV-818]: in the data set with Human PBMC, the IL-2 expression entry is “induced”. Besides, the “sIL-6 in the stromal HT-29 system” value in data set [1] is given as “inhibits”. Further, in [2], the “stability in human plasma” value was “stable”. The half-inhibitory concentration (IC50) with HepG2 was roughly 20 nM. In [3], the “Collagen III” value is listed as “decreased”, the IP-10 entry is “decreased”, the VCAM-1 result was “decreased” and the sIFNγ entry is “increased”. In data set [3], the sIL-6 entry is recorded as “decreased”, the sIL-17A entry is on record as “increased” and the uPAR result is given as “Decreased”. Moreover, the “PBMC-mediated tumour cell killing (apoptotic SK-OV-3 counts)” value with SK-OV-3 tumour cells is on record as “enhance”. Moreover, in data set [4] (rodent blood), the “metabolism in rodent blood” value is given as “very quickly metabolized”. In data set [4] (rodent plasma), the “stability in rodent plasma” value is “extremely unstable”. The same compound registered an IC50 in the data set with HT-29 of roughly 20 nM.
On to “pembrolizumab: humanized monoclonal IgG4 antibody directed against human cell surface receptor PD-1”, for which the “sIL-6 in the stromal HT-29 system” value in [1] is on record as “increase; also recorded: modest enhancement”. Further, the adverse event reported result in [5] is given as “liver failure”.
